What all share (type): in vivo
The test system of assay [1] is KK^Ay mice. The experiment in a line: Blood insulin content and insulin sensitivity index (ISI) in KK^Ay mice (Example 3). The note with it: serum, after 2 weeks treatment, vs model group. An excerpt: (§1) 60 KK^Ay mice were adaptively bred for 1 week, and then randomly assigned into 6 groups: Model group, Compound (1) group, Compound (2) group, Compound (3) group, Compound (4) group, and metformin group, 10 mice per group. 10 normal C57BL/6 mice were used for the control group. KK^Ay mice were in a high-fat diet, and the control normal mice were in a normal control diet. The control and model groups were hypodermically injected with sterile water, the 6 medicated groups mice were subcutaneously injected with […] Wacao saponins, (Compounds (1), (2), (3) and (4)) respectively, and the positive group was administered metformin by gavage. All mice were administrated at 9 am for 2 weeks and the administration volume is 10 ml/kg BW.
The body weight, food and water intake of each mouse was measured and recorded weekly throughout the course of the experiment. At the end of the experiment, collected the blood and separated serum, fasting blood glucose, insulin levels and insulin sensitivity index (ISI) were measured or calculated in each group. […]
Blood detection: Blood glucose was measured weekly. Overnight fasting glycemia level was measured with One Touch ULTRA Glucometer for the tail blood test. At the end of the experiment, blood serum was collected for measuring levels of fasting blood glucose and insulin, and the insulin sensitivity index (ISI) was calculated. […]

The subject of assay [2] is KK^Ay mice. The experiment in a line: Effects of Wacao saponins on glycemia in KK^Ay T2DM mice (Example 2). An excerpt:
80 male KK^Ay mice (12 weeks of age, License NO. SCXK (BJ) 2009-0015, Beijing Huafukang Biology Technology Co. Ltd.) and 10 male normal C57BL/6 mice (12 weeks of age, License NO. SCXK (BJ) 2009-0015, Beijing Huafukang Biology Technology Co. Ltd.) were adaptively bred for one week, and then used in the pharmacological experiment.
The animals were housed individually in wood-chip-bedded plastic cages. Germ-free and high-fat diets (Beijing Huafukang Biology Technology Co. Ltd.) were used to feed the KK^Ay mice, and the standard laboratory chows were used to feed normal C57BL/6 mice. All the animals had free access to food and water.
80 KK^Ay mice were adaptively bred for 1 week, and then randomly assigned into 8 groups: Model group, Compound (1) group, Compound (2) group, Compound (3) group, Compound (4) group, Compound (7) group, Compound (8) group and metformin group, 10 mice per group. 10 normal C57BL/6 mice were used as the control group. KK^Ay mice were fed with the high-fat diet, and the control group was fed with the normal control diet. The control and model groups were hypodermically injected with sterile water, 6 medicated groups were hypodermically injected with 6 kinds of Wacao saponins, the Compounds (1), (2), (3), (4), (7) and (8), and the positive group (metformin group) was irrigated per oral. All groups were administrated at 9 am for 2 weeks. The administrating volume is 10 ml/kg BW and the administration dosage is shown in Table3.
All mice of the fasting tail blood glucose level were measured weekly using One Touch ULTRA Glucometer (Life Scan Johnson and Johnson, USA).
Each compound of Wacao saponins was dissolved into sterile water and sterilized with filtration for Sc. The metformin was dissolved into sterile water for lg. The control and model group mice were injected with sterile water, Sc. All the animals were treated at 9 am for 2 weeks.
Overnight fasting tail blood glucose level was measured weekly using One Touch ULTRA Glucometer and measured for twice.
Each group was administrated for 2 weeks (14 days) and then the experiment was terminated.
Results are expressed as means±SD. Statistical analysis were analyzed by using SPSS 10.0 software. Data were evaluated with analysis of variance.

For assay [3], the system named is KK^Ay mice. The assay can be described thus: Hepatic and muscle glycogen in KK^Ay mice (Example 3). Particulars: 2.0 mg/kg Sc, after 2 weeks, vs model group.
From the text: as §1
(§2) The body weight, food and water intake of each mouse was measured and recorded weekly throughout the course of the experiment. At the end of the experiment, collected the blood and separated serum, fasting blood glucose, insulin levels and insulin sensitivity index (ISI) were measured or calculated in each group. Liver, skeletal muscles of mice in each group were taken and weighed for detecting glycogen levels of the hepatic and muscles after mice being killed.
(§3) Compound (1), (2), (3) and (4) were respectively dissolved into sterile water, and sterilized with filtration for Sc. to the medication groups. The metformin was dissolved into sterile water for lg. to the positive control group. Control and model groups animals were injected with sterile water (10 ml/kg BW), Sc. All the animals were treated daily at 9 am for 2 weeks (14 days).
(§4) Blood detection: Blood glucose was measured weekly. Overnight fasting glycemia level was measured with One Touch ULTRA Glucometer for the tail blood test. At the end of the experiment, blood serum was collected for measuring levels of fasting blood glucose and insulin, and the insulin sensitivity index (ISI) was calculated. At the same time, hepatic tissues and skeletal muscles of mice were taken out to determine levels of hepatic and muscle glycogen by detection kits.

For assay [4], the system named is KK^Ay mice. The experiment in a line: Glycemia in KK^Ay mice during treatment and after withdrawal (Example 3).
From the text: (§5) 60 male KK^Ay mice (12 weeks of age, License NO. SCXK (BJ) 2009-0015, Beijing Huafukang Biology Technology Co. Ltd.) and 10 normal male C57BL/6 mice (12 weeks of age, License NO. SCXK (BJ) 2009-0015, Beijing Huafukang Biology Technology Co. Ltd.) were adaptively bred for one week, and then used in the following experiment.
as §1, §3, §4
Termination of the experiment After administrating mice for 2 weeks (14 days), the experiment was terminated.
This experiment is to observe the anti-hyperglycemia effects of Wacao saponins on KK^Ay mice during and after the period of drug treatment, respectively.

For assay [5], the system named is KK^Ay mice. The assay can be described thus: Body weight, food and water intake in KK^Ay mice (Example 3). Particulars: vs model group.
From the text: as §5
The animals were housed individually in wood-chip-bedded plastic cages. Germ-free and high-fat diets (Beijing Huafukang Biology Technology Co. Ltd.) were used to feed the KK^Ay mice. All the animals had free access to food and water.
as §1, §2, §3
Measurement of food and water intake: 24 hours' food and water intake were measured by gravimetry once a week. It should be paid attention to recycling leakage of small forage into the feed box to ensure the accuracy of food intake.
Determination of body weight: The body weight of mice was measured and recorded once a week.
Results are shown as means±SD. Statistical analysis data were analyzed by using SPSS 10.0 software. Data were evaluated with analysis of variance.

These results are taken from US20160324884A1, “TREATMENT OF DIABETES WITH PENTACYCLIC TRITERPENOID SAPONIN COMPOUNDS FROM SZECHUAN MELANDIUM ROOT” (priority 2013, published 2016).

For the compound `COC(=O)C1OC(O[C@H]2CC[C@]3(C)[C@H]4C=CC5[C@@H]6CC(C)(C)CC[C@]6(C(=O)OC6OC(C)C(OC(=O)/C=C\c7ccc(C)cc7)C(OC(C)=O)C6OC6OC(C)C(O)C(O)C6O)[C@H](O)C[C@@]5(C)[C@]4(C)CC[C@H]3[C@]2(C)C=O)C(OC2OC(CO)C(O)C(O)C2O)C(OC2OCC(O)C(O)C2O)C1O` (stereo partly drawn) [Compound (4), sinocrassuloside IX], in the assay on KK^Ay mice [1], the insulin level entry is reported as “all groups except Compound (4) increased significantly”. Further, the “glycemia (fasting tail blood glucose), hypoglycemic activity” value in the assay on KK^Ay mice [2] (2.0 mg/kg BW Sc daily, after 1 week, vs model group) is “then followed by Compound (2), Compound (4), Compound (3) and Compound (7)”. Also, in the assay with KK^Ay mice [2] (2.0 mg/kg BW Sc, 2 weeks, ranking), the “anti-hyperglycemia effect, compounds compared with each other” value is “followed by Compound (3) and (4) (cis-trans-isomers), and Compound (7)”. The muscle glycogen level entry in the assay with KK^Ay mice [3] was “weaker efficacy in raising level of muscle glycogen which had no statistical significant difference compared with that of the model group”. The “anti-hyperglycemia effect compared with metformin” value in the assay with KK^Ay mice [4] (KK^Ay mice, 2.0 mg/kg Sc vs metformin 500 mg/kg lg) is “all treatment groups except Compound (4) had stronger anti-hyperglycemia effects than that of metformin”. For the same compound, the glycemia level result with KK^Ay mice [4] (KK^Ay mice, after 1 week, compounds 2.0 mg/kg Sc, metformin 500 mg/kg lg, vs model group) was “each treatment group, except the Compound (4) group, showed a significantly decrease”. For the same compound, in the assay on KK^Ay mice [4] (T2DM mice, 2 mg/kg, two weeks after subcutaneous injection), the “descending rates of blood glucose” value was 50%. Moreover, the food intake result in the assay with KK^Ay mice [5] (after 2 weeks, compounds 2.0 mg/kg Sc, metformin 500 mg/kg lg) was “except the Compound (4) group, mice in all groups showed obvious reduction in food intake”. Besides, the water intake entry in the assay with KK^Ay mice [5] (week 1, 2.0 mg/kg Sc) is given as “decreased significantly (p<0.05 or p<0.01, vs. model group), except Compound (4) group in week 1”.
